Measured values taken from patent US9481648B2, “Kinase inhibitors” (Respivert Limited, priority 2013, dated 2016).
Read-outs that look alike come from different tables or passages of the source.

Experiments:
[1] = target: Lck (Homo sapiens (Human), UniProt P06239); assay: KINOMEscan enzyme binding assay (dissociation constant)
Protocol: (§1) Kinase enzyme binding activities of compounds disclosed herein may be determined using a proprietary assay which measures active site-directed competition binding to an immobilized ligand (Fabian, M. A. et al., Nature Biotechnol., 2005, 23:329-336). These assays may be conducted by DiscoverX (formerly Ambit; San Diego, Calif.). The percentage inhibition produced by incubation with a test compound may be calculated relative to the non-inhibited control.

[2] = target: Syk (Homo sapiens (Human), UniProt P43405); assay: as above
Protocol: as §1

[3] = target: p38 MAPKα (Homo sapiens (Human), UniProt Q16539); assay: as above
Protocol: as §1

[4] = target: B-Raf (Homo sapiens (Human), UniProt P15056); assay: KINOMEscan binding of kinase to its standard ligand
Protocol: as §1

[5] = target: B-Raf (V600E) (Homo sapiens (Human), UniProt P15056, V600E); assay: as above
Protocol: as §1

[6] = system: non-mutant kinases; format: binding; conditions: for KinomeScan Selectivity Score S(10): (number of non-mutant kinases with % Ctrl <10)/(number of non-mutant kinases tested); for KinomeScan Selectivity Score S(35): (number of non-mutant kinases with % Ctrl <35)/(number of non-mutant kinases tested); for number of individual kinase hits, S(1): non-mutant kinases with % Ctrl <1; for number of individual kinase hits, S(10): non-mutant kinases with % Ctrl <10; for number of individual kinase hits, S(35): non-mutant kinases with % Ctrl <35
Protocol: These assays may be conducted by DiscoverX (formerly Ambit; San Diego, Calif.). The percentage inhibition produced by incubation with a test compound may be calculated relative to the non-inhibited control.

[7] = target: p38 MAPKα (MAPK14) (Homo sapiens (Human), UniProt Q16539); assay: p38 MAPKα enzyme inhibition (FRET, Z-LYTE; Method 2); format: biochemical
[8] = target: c-Src (Homo sapiens (Human), UniProt P12931); assay: c-Src enzyme inhibition (FRET, Z-LYTE); format: biochemical
In short: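 Syk or c-Src enzyme (3000 or 2000 ng/mL solutions) was preincubated 2 h at RT with compound solutions at 1, 0.1, 0.01 or 0.001 µg/mL. Z-LYTE FRET peptide (8 µM solution) and ATP (800 µM solution for c-Src, 60 µM for Syk) were then added for 1 h, followed by protease development for 1 h. Phosphorylation was read as the coumarin/fluorescein emission ratio.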

[9] = Plasma pharmacokinetics in rats, single intravenous or oral administration; format: in vivo, rat (male Wistar); conditions: for C0: intravenous 0.25 mg/kg in 5% DMSO-7.5% Solutol HS15-87.5% normal saline; for Vd: read-out: Vss; for Fpo: oral 5 mg/kg, vehicle C (Example 4) or B
Protocol: Studies were conducted by Sai Life Sciences (Hinjewadi, Pune, India) to investigate the plasma pharmacokinetics and total colon tissue distribution of compounds of the invention. In particular, pharmacokinetic studies were carried out in: • male C57BL/6 mice, following a single oral administration; and • male Wistar rats following a single intravenous or oral administration.

[10] = Human hepatocyte stability test; format: in vitro ADME; conditions: human hepatocytes; for hepatocyte CLint: read-out: Mean intrinsic clearance
Protocol: (§2) Assessment of certain in vitro ADME (absorption, distribution, metabolism, and excretion) parameters for certain compounds of the invention was conducted by BioFocus (Saffron Walden, UK).

[11] = target: CYP3A4 (Homo sapiens (Human), UniProt P08684); assay: CYP3A4 inhibition study; format: in vitro ADME; conditions: for inhibition at 15 µM / inhibition at 5 μM: human; for inhibition at 15 µM: read-out: 15 μM % Inh; for inhibition at 5 μM: read-out: % Inh (inhibition at 5 μM reported instead)
Protocol: as §2

[12] = system: endotoxin (LPS)-induced uveitis in Lewis rats; assay: Endotoxin-induced uveitis in rats (in vivo vi); design: species or system rat; conditions: for IL-1β Anterior / IL-1β Posterior / IL-6 Anterior / IL-6 Posterior / MCP-1 Anterior / MCP-1 Posterior: eyes of LPS-stimulated rats, 1 mg/mL; for cytokine levels in both the anterior and posterior segments of the eyes: rats treated with intravitreal endotoxin LPS, topical dosing
Protocol: Male, Lewis rats (6-8 weeks old, Charles River UK Limited) are housed in cages of 3 at 19-21° C. with a 12 h light/dark cycle (07:00/19:00) and fed a standard diet of rodent chow and water ad libitum. Non-fasted rats are weighed, individually identified on the tail with a permanent marker, and receive a single intravitreal administration into the right vitreous humor (5 μL dose volume) of 100 ng/animal of LPS (Escherichia coli 0111:B4 prepared in PBS, Sigma Aldrich, UK) using a 32-gauge needle. Untreated rats are injected with PBS. […] Following euthanasia, the right eye of each animal is enucleated and dissected into front (anterior) and back (posterior) sections around the lens. Each section is weighed and homogenised in 500 μL of sterile phosphate buffered saline followed by 20 minutes centrifugation at 12000 rpm at 4° C.

[13] = male, Wistar, rat, plasma, rats, intravenous 0.25 mg/kg
[14] = male, Wistar, rat, plasma, rats
[15] = male, Wistar, rat, plasma, po, 5 mg/kg

Chain of CYP3A4 (P08684 whole entry): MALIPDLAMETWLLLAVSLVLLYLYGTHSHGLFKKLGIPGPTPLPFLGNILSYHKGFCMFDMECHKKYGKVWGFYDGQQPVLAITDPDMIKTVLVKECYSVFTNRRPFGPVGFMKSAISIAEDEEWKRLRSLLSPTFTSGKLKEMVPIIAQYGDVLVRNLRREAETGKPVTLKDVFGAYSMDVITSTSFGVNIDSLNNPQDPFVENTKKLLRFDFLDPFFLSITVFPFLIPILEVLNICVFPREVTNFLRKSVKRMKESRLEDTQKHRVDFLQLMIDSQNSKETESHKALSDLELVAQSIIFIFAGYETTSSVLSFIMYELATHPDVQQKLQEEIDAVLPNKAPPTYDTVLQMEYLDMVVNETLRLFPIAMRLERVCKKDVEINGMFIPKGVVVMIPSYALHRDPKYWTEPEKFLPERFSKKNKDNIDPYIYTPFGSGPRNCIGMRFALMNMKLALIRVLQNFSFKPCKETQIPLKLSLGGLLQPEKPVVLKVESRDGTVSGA
Chain of p38 MAPKα (Q16539 whole entry): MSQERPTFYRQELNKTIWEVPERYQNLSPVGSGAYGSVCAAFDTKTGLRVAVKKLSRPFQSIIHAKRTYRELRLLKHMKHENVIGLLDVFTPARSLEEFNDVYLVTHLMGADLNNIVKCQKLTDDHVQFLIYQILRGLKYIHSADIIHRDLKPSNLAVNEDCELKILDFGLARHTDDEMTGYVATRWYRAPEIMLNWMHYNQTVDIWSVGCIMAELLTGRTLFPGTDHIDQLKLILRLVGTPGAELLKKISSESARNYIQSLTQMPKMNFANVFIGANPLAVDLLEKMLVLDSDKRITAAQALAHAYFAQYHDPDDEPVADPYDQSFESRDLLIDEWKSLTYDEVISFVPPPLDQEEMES
Chain of p38 MAPKα (MAPK14) (Q16539 whole entry): as above
Chain of B-Raf (V600E) (P15056 whole entry V600E): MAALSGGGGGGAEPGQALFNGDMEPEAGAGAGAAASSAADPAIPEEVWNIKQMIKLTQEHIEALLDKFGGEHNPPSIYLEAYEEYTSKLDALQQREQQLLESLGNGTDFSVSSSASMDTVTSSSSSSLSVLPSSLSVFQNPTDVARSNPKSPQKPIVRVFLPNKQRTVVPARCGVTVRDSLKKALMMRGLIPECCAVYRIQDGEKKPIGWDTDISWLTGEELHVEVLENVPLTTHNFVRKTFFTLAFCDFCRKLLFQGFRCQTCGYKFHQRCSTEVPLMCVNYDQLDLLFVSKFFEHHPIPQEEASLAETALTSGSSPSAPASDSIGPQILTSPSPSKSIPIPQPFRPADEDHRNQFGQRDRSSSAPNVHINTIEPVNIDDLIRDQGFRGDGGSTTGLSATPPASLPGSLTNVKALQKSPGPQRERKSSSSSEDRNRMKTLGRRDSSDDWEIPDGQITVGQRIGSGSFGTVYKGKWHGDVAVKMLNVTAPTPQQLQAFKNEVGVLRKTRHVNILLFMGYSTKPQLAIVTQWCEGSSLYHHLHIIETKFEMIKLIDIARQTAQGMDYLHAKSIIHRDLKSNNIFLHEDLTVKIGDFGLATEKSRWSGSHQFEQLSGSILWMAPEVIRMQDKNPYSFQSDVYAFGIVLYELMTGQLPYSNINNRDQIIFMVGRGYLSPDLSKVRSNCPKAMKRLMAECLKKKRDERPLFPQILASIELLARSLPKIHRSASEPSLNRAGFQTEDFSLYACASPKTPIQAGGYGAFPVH
Chain of Lck (P06239 whole entry): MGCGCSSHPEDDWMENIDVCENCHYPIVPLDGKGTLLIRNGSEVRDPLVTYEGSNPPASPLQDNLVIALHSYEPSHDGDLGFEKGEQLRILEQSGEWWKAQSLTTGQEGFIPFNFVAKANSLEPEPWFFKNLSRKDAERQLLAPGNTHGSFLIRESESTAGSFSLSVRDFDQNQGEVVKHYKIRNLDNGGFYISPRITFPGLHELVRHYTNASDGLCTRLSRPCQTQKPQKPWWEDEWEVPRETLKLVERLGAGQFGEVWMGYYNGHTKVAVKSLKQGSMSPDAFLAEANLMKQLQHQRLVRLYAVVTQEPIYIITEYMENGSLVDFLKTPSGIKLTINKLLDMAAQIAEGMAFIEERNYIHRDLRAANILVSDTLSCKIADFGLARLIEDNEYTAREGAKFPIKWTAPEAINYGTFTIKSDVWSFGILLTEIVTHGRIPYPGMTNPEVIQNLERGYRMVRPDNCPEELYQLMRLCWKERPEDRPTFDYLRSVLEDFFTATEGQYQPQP
Chain of B-Raf (P15056 whole entry): as the sequence (P15056 whole entry V600E) above, with E600V counted along it
Chain of c-Src (P12931 whole entry, looked up): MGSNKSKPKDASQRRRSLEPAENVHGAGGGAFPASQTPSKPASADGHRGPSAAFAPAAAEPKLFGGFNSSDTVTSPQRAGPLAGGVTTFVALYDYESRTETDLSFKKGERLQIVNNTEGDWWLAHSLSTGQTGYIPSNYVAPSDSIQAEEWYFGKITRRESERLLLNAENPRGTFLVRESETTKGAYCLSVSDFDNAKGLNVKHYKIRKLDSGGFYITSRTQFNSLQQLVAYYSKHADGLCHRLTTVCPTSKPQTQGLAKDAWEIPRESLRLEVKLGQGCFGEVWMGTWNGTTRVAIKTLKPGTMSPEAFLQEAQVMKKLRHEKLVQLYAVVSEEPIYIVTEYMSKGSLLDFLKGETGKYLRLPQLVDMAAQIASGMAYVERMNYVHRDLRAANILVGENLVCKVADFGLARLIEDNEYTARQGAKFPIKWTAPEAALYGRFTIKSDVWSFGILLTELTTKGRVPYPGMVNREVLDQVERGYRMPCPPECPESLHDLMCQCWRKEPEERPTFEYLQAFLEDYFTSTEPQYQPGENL

| SMILES | Kd [1] [nM] | Kd [2] [nM] | Kd [3] [nM] | effect on the binding of the kinase B-Raf to its standard ligand [4] | effect on the binding of the kinase B-Raf (V600E) to its standard ligand [5] | IC50 [7] [nM] | IC50 [8] [nM] | AUC(0-inf) [9, 13] [ng·h/mL] | AUC(0-t) [9, 13] [ng·h/mL] | half-life [9, 13] [min] | C0 [9, 14] [ng/mL] | Vd [9, 13] [L/kg] | CI ([9]; rats, intravenous 0.25 mg/kg) [mL/min/kg] | Fpo ([9]; rats) [%] | half-life [10] [min] | hepatocyte CLint [10] [µL/min/1e6 cells] | IC50 ([11]; CYP3A4, 0 min preincubation) [µM] | IC50 ([11]; CYP3A4, 30 min preincubation) [µM] | inhibition at 15 µM ([11]; CYP3A4, 0 min preincubation) [%] | inhibition at 15 µM ([11]; CYP3A4, 30 min preincubation) [%] | other results |
| --- | --- | --- | --- | --- | --- | --- | --- | --- | --- | --- | --- | --- | --- | --- | --- | --- | --- | --- | --- | --- | --- |
| COCCOCCOCCNC(=O)c1cc(Nc2cc(Oc3ccc(NC(=O)Nc4cc(C(C)(C)C)cc(NS(C)(=O)=O)c4OC)c4ccccc34)ccn2)cc(OC)c1 [Example 3, 3-((4-((4-(3-(5-(tert-Butyl)-2-methoxy-3-(methylsulfonamido)phenyl)ureido)naphthalen-1-yl)oxy)pyridin-2-yl)amino)-5-methoxy-N-(2-(2-(2-methoxyethoxy)ethoxy)ethyl)benzamide] | 2.3 | 10 | 6.9 | did not have any significant effect | did not have any significant effect | 87 | 20 | 821 | 820 | 12 | 4380 | 0.1 | 5.1 | 0.0 | 36 | 39 | > 15 | > 15 | 22 | 51 | KinomeScan Selectivity Score S(10) ([6]; 50 nM): 0.023; KinomeScan Selectivity Score S(35) ([6]; 50 nM): 0.091; number of individual kinase hits, S(1) ([6]; 50 nM): 0; number of individual kinase hits, S(10) ([6]; 50 nM): 9; number of individual kinase hits, S(35) ([6]; 50 nM): 36; KinomeScan Selectivity Score S(1) ([6]; 500 nM, (number of non-mutant kinases with % Ctrl <1)/(number of non-mutant kinases tested)): 0.046; KinomeScan Selectivity Score S(10) ([6]; 500 nM): 0.149; KinomeScan Selectivity Score S(35) ([6]; 500 nM): 0.235; number of individual kinase hits, S(1) ([6]; 500 nM): 18; number of individual kinase hits, S(10) ([6]; 500 nM): 59; number of individual kinase hits, S(35) ([6]; 500 nM): 93; selectivity compared to the Reference Compound ([6]; as evidenced by lower selectivity scores): substantially improved selectivities |
| COCCOCCOCCOc1cc(Nc2nccc(Oc3ccc(NC(=O)Nc4cc(C(C)(C)C)cc(NS(C)(=O)=O)c4OC)c4ccccc34)n2)cc(OC)c1 [Example 4, N-(5-(tert-Butyl)-2-methoxy-3-(3-(4-((2-((3-methoxy-5-(2-(2-(2-methoxyethoxy)ethoxy)-ethoxy)phenyl)amino)pyrimidin-4-yl)oxy)naphthalen-1-yl)ureido)phenyl)methanesulfonamide] | 3 | 14 | 19 | did not have any significant effect | did not have any significant effect | 91 | 14 | 563 | 558 | 48 | 3040 | 0.2 | 7.9 | 0.2 | 48 | 29 | > 5 | 2.7 |  |  | IL-1β Anterior ([12]; Table 7a): 20.3 ± 18.9 pg/mL; IL-1β Posterior ([12]; Table 7a): 7.6 ± 7.6 pg/mL; IL-6 Anterior ([12]; Table 7a): 642.3 ± 48.9 pg/mL; IL-6 Posterior ([12]; Table 7a): 897.9 ± 120.3 pg/mL; MCP-1 Anterior ([12]; Table 7a): 0 ± 0 pg/mL; MCP-1 Posterior ([12]; Table 7a): 1.0 ± 1.0 pg/mL; cytokine levels in both the anterior and posterior segments of the eyes [12]: significantly reduced; AUC(0-inf) [9, 15]: 40.8 ng·h/mL; AUC(0-t) [9, 15]: 27 ng·h/mL; Cmax [9, 15]: 15.5 ng/mL; Tmax [9, 15]: 30 min; inhibition at 5 μM ([11]; CYP3A4, 0 min preincubation): 9%; inhibition at 5 μM ([11]; CYP3A4, 30 min preincubation): 58% |
| COc1cc(Nc2cc(Oc3ccc(NC(=O)Nc4cc(C(C)(C)C)cc(NS(C)(=O)=O)c4OC)c4ccccc34)ccn2)cc(C(=O)NCCN2CCOCC2)c1 [Example 27] | 4.3 | 27 | 29 | did not have any significant effect | did not have any significant effect | 41 | 26 | 590 | 588 | 48 | 3880 | 0.1 | 7.1 | 0.0 | 96 | 15 | > 15 | 8.9 | 19 | 57 | IL-1β Anterior ([12]; Table 7b): 640 ± 263 pg/mL; IL-1β Posterior ([12]; Table 7b): 394 ± 115 pg/mL; IL-6 Anterior ([12]; Table 7b): 519 ± 196 pg/mL; IL-6 Posterior ([12]; Table 7b): 424 ± 116 pg/mL; MCP-1 Anterior ([12]; Table 7b): 282 ± 109 pg/mL; MCP-1 Posterior ([12]; Table 7b): 352 ± 109 pg/mL; cytokine levels in both the anterior and posterior segments of the eyes [12]: significantly reduced |
